Laboratory results as given in patent US20240099343A1, “USE OF GINGERDIOL COMPOUNDS TO ENHANCE FLAVOR” (Firmenich SA, priority 2021, published 2024).

Key:
[1] = Sensory testing with salt reduction, meat flavoring formulation, panel of three expert tasters; format: in vivo; conditions: 20% reduced salt (0.646%) with 1 ppm compound, scale from 1 to 10
Method: Further sensory testing was carried out using a panel of three (3) expert tasters, who rated the taste of a meat flavoring formulation with: (a) a normal amount of salt ([…]); (b) 20% reduced salt (0.646%); and (c) 20% reduced salt (0.646%) with 1 ppm [6]-gingerdiol-diacetate. The panelists rated the soups for salt intensity, umami intensity, bitter intensity, and overall liking on a scale from 1 to 10.

[2] = Sensory testing with salt reduction, mushroom-based cream soup, panel of four expert tasters; format: in vivo; conditions: 20% reduced salt (0.684%) with 1 ppm compound, scale from 1 to 10
Method: Sensory testing was carried out using a panel of four (4) expert tasters, who rated the taste of the a mushroom-based cream soup with: (a) a normal amount of salt (0.855%); (b) 20% reduced salt (0.684%); and (c) 20% reduced salt (0.684%) with 1 ppm [6]-gingerdiol-diacetate. The panelists rated the soups for salt intensity, umami intensity, bitter intensity, and overall liking on a scale from 1 to 10.

For `CCCCCC(CC(CCc1ccc(O)c(OC)c1)OC(C)=O)OC(C)=O` (centres unmarked) [Gingerdiol, [6]-gingerdiol-diacetate], the “Bitter (bitter intensity)” value [1] was 2.3, the “Overall Liking” value [1] was 5.0 and the “Saltiness (salt intensity)” value [1] was 5.3. For the same molecule, the “Umami (umami intensity)” value [1] was 4.0, the “Bitter (bitter intensity)” value [2] was 0.0 and the “Overall Liking” value [2] was 2.3. For the same molecule, the “Saltiness (salt intensity)” value [2] was 3.3 and the “Umami (umami intensity)” value [2] was 3.0.
